Measurements as given in ChEMBL document CHEMBL1136094, “Novel, potent and selective cyclin D1/CDK4 inhibitors: indolo[6,7-a]pyrrolo[3,4-c]carbazoles” (Bioorg Med Chem Lett, 2003).
Several values for one entry are separate records, joined by “and”; a condition that tells them apart may be missing. Identical values can stand only once.

Tests used:
HCT-116 [1] = experiment: GI arrest (1 fold increase over control) in HCT116 cells was determined by flow cytometry after 24 hr incubation; assay type: functional, Homo sapiens
[2] = target: cAMP-dependent protein kinase (PKA) (Homo sapiens, UniProt P22694+P17612+P22612); experiment: Inhibitory activity against Protein kinase A (Histone); assay type: protein assay
[3] = target: Cyclin-dependent kinase 4 (Homo sapiens) (UniProt P11802); experiment: Inhibition of Rb phosphorylation at the CDK4 specific Ser780 residue (1 fold increase over control) after 24 hr incubation in HCT116 cells; assay type: functional, cell-based; conditions: HCT-116, concentration not given here
[4] = target: T1, Cyclin-dependent kinase 4/cyclin D1 (Homo sapiens, UniProt P11802); experiment: Inhibitory activity against Cyclin D1-cyclin-dependent kinase 4 in enzymatic assay by measuring phosphorylation of Rb21; assay type: protein-complex assay
NCI-H460 = experiment: In vitro antiproliferative activity against human carcinoma cell line H460 (lung); assay type: functional, cell-based
[5] = target: Cyclin-dependent kinase 4 (Homo sapiens) (UniProt P11802); experiment: Inhibition of Rb phosphorylation at the CDK4 specific Ser780 residue (3 fold increase over control) after 24 hr incubation in HCT116 cells; assay type: functional, cell-based; conditions: HCT-116, concentration not given here
[6] = target: T1, Cyclin-dependent kinase 4/cyclin D1; experiment: Inhibitory activity against Cyclin D1-cyclin-dependent kinase 4 in enzymatic assay by measuring phosphorylation of RbING; assay type: protein-complex assay
HCT-116 [7] = experiment: In vitro antiproliferative activity against human carcinoma cell line HCT116 (colon); assay type: functional, cell-based
[8] = target: Cyclin-dependent kinase 2/cyclin E (Homo sapiens, UniProt P24941); experiment: Inhibitory activity against Cyclin E-cyclin-dependent kinase 2 in enzymatic assay by measuring phosphorylation of RbING; assay type: protein-complex assay
CaM kinase II = CaM kinase II (Homo sapiens, UniProt Q13557+Q13555+Q13554+Q9UQM7); experiment: Inhibitory activity against Calcium/calmodulin-dependent protein kinase type II; assay type: protein assay

T1 sequence (P11802 whole entry): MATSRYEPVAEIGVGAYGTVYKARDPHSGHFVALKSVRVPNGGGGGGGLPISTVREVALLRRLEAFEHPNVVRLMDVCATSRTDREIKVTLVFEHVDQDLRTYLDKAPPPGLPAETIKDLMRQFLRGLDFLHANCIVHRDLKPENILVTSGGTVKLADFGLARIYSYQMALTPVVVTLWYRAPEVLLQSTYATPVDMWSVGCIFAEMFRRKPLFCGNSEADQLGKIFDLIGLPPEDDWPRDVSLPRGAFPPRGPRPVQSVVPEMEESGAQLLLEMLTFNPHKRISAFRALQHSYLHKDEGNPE
T1 sequence (P24385 whole entry, further chain): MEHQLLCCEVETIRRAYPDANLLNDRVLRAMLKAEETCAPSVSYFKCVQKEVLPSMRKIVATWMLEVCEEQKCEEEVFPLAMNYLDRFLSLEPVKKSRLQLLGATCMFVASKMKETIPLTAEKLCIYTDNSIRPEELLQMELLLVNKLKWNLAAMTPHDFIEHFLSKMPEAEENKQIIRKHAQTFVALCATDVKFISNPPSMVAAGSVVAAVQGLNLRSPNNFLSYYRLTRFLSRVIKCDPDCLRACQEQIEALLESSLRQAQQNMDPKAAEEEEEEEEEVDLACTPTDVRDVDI
Cyclin-dependent kinase 4 (Homo sapiens), sequence (P11802 whole entry): as the sequence (P11802 whole entry) above

IC50 [2] | inhibition [3] | IC50 [4] | IC50 (NCI-H460) | inhibition [5] | IC50 [6] | IC50 (HCT-116 [7]) | IC50 [8] | IC50 (CaM kinase II) | Structure (SMILES) | Fold increase (HCT-116 [1])
– | – | – | – | – | – | – | – | – | Cn1ccc2ccc3c4[nH]c5c(CCN6CCC[C@H]6CO)cccc5c4c4c(c3c21)C(=O)NC4=O.O=C(O)C(F)(F)F | 1.5
2350 nM | 37% | 9 nM | 1080 nM | 95% | 33 nM | 670 nM | – | – | Cn1ccc2ccc3c4[nH]c5cc(O)ccc5c4c4c(c3c21)C(=O)NC4=O | 2.2
14100 nM | – | 24 nM | 370 nM | – | 34 nM | 950 nM | 1500 nM | 174 nM | CCN(CC)CCCc1cccc2c1[nH]c1c3ccc4ccn(C)c4c3c3c(c21)C(=O)NC3=O | –
> 20000 nM | – | 21 nM | 1630 nM | – | 69 nM | 1690 nM | 716 nM | > 20000 nM | COc1ccc2c3c4c(c5c(ccc6ccn(C)c65)c3n(CCCN3CCOCC3)c2c1)C(=O)NC4=O | –
2930 nM | – | 14 nM | 900 nM | – | 95 nM | 450 nM | 1230 nM | 11600 nM | COc1ccc2c3c4c(c5c(ccc6ccn(C)c65)c3n(CCCN3CCN(C)CC3)c2c1)C(=O)NC4=O | –
– | 65% | – | – | 73% | – | – | – | – | Cn1ccc2ccc3c4[nH]c5c(CCN6CCC[C@H]6CO)cccc5c4c4c(c3c21)C(=O)NC4=O [listing 1 of 2 here] | –
– | 68% | – | – | 69% | – | – | – | – | Cn1ccc2ccc3c4[nH]c5c(CCN6CCC(O)CC6)cccc5c4c4c(c3c21)C(=O)NC4=O [listing 1 of 2 here] | –
> 20000 nM | – | 13 nM | > 10000 nM | – | 47 nM | > 10000 nM | 972 nM | 81 nM | COC(=O)C1CCN(CCc2cccc3c2[nH]c2c4ccc5ccn(C)c5c4c4c(c32)C(=O)NC4=O)CC1 | –
> 20000 nM | – | 23 nM | 3800 nM | – | 84 nM | 2690 nM | 942 nM | 6120 nM | COc1ccc2c3c4c(c5c(ccc6ccn(C)c65)c3n(CCN3CCC[C@H]3CO)c2c1)C(=O)NC4=O | –
– | – | – | – | – | – | – | – | – | Cn1ccc2ccc3c4[nH]c5c(CCN6CCC(O)CC6)cccc5c4c4c(c3c21)C(=O)NC4=O.O=C(O)C(F)(F)F | 1.8
> 20000 nM | – | 43 nM | 1680 nM | – | 56 nM | 2820 nM | 1330 nM | 516 nM | Cn1ccc2ccc3c4[nH]c5c(CCCN6CCOCC6)cccc5c4c4c(c3c21)C(=O)NC4=O | –
– | 57% and 69% | – | – | 88% and 80% | – | – | – | – | Cn1ccc2ccc3c4[nH]c5c(CCN6CCOCC6)cccc5c4c4c(c3c21)C(=O)NC4=O | –
> 20000 nM | – | 24 nM | 3410 nM | – | 82 nM | 3410 nM | 1800 nM | 403 nM | Cn1ccc2ccc3c4[nH]c5c(CCN6CCSCC6)cccc5c4c4c(c3c21)C(=O)NC4=O | –
8310 nM | – | 19 nM | 1100 nM | – | 40 nM | 770 nM | 567 nM | 266 nM | Cn1ccc2ccc3c4[nH]c5c(CCCNCCO)cccc5c4c4c(c3c21)C(=O)NC4=O | –
2810 nM | – | 4 nM | 1130 nM | – | 48 nM | 1260 nM | 2100 nM | 3130 nM | COc1ccc2c3c4c(c5c(ccc6ccn(C)c65)c3n(CCCN3CCC(O)CC3)c2c1)C(=O)NC4=O | –
4580 nM | – | 23 nM | 210 nM | – | 39 nM | 420 nM | 685 nM | 90 nM | Cn1ccc2ccc3c4[nH]c5c(CCN6CCC[C@H]6CO)cccc5c4c4c(c3c21)C(=O)NC4=O [listing 2 of 2 here] | –
2990 nM | – | 8 nM | 140 nM | – | 45 nM | 200 nM | 978 nM | 46 nM | Cn1ccc2ccc3c4[nH]c5c(CCN6CCC(O)CC6)cccc5c4c4c(c3c21)C(=O)NC4=O [listing 2 of 2 here] | –
